Measurements: ChEMBL document CHEMBL3751669, “Structural refinement of pyrazolo[4,3-d]pyrimidine derivatives to obtain highly potent and selective antagonists for the human A3 adenosine receptor” (Eur J Med Chem, 2016)

What was measured:
[1] = molecular target: T1, Adenosine receptor A1 (Homo sapiens) (UniProt P30542); assay: Displacement of [3H]DPCPX at human A1 receptor expressed in CHO cell membrane at 1 uM after 120 mins by scintillation counting method; type: cell membranes
T1 sequence (whole entry): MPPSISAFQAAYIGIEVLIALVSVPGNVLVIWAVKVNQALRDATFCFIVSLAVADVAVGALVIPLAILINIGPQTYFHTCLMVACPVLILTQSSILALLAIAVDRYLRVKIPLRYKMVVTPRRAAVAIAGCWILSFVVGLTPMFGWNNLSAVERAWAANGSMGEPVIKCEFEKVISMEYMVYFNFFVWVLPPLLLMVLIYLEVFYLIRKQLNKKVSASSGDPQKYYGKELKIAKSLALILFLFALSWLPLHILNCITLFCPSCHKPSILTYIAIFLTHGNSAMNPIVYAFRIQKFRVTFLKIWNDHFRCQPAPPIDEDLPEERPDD

Adenosine receptor A2a [2] = molecular target: T2, Adenosine receptor A2a (Homo sapiens, UniProt P29274); assay: Displacement of [3H]ZM241385 at human A2A receptor expressed in CHO cell membrane at 1 uM after 60 mins by scintillation counting method; type: cell membranes
Adenosine receptor A3 [3] = molecular target: T3, Adenosine receptor A3 (Homo sapiens, UniProt P0DMS8); assay: Displacement of [125I]AB-MECA at human […] receptor expressed in CHO cell membrane after 60 mins by scintillation counting method; type: cell membranes
T3 sequence (P0DMS8 whole entry): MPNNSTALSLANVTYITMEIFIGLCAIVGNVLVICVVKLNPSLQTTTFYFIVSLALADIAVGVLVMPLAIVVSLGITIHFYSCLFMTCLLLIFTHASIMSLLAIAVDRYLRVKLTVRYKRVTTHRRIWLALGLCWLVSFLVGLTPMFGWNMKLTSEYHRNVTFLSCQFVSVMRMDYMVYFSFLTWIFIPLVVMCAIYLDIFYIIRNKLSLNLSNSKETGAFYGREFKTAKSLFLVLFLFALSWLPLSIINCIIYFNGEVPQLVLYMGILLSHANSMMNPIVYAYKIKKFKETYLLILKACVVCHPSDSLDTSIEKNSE

[4] = molecular target: T4, Adenosine receptor A2b (Homo sapiens) (UniProt P29275); assay: Antagonist activity at human A2B receptor expressed in CHO cells assessed as inhibition of NECA-stimulated cAMP production at 1 uM by scintillation counting method; type: functional, cell-based
T4 sequence (whole entry): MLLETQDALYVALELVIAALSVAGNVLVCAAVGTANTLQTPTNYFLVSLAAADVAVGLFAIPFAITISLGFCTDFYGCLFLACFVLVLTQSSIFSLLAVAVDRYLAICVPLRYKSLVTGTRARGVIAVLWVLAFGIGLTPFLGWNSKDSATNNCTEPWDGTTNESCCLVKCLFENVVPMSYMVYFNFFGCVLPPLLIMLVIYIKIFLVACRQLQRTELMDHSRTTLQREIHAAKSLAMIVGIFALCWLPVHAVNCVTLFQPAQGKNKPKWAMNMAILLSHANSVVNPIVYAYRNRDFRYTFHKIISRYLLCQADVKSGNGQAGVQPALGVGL

Adenosine receptor A3 [5] = molecular target: T3, Adenosine receptor A3; assay: Antagonist activity at human A3 receptor expressed in CHO cells assessed as inhibition of Cl-IB-MECA-induced cAMP production by scintillation counting method; type: functional, cell-based
Adenosine receptor A3 [6] = molecular target: T5, Adenosine receptor A3 (Rattus norvegicus, UniProt P28647); assay: Displacement of [125I]AB-MECA at rat A3 receptor expressed in HEK293 cells after 60 mins by scintillation counting method; type: cell-based
T5 sequence (P28647 whole entry): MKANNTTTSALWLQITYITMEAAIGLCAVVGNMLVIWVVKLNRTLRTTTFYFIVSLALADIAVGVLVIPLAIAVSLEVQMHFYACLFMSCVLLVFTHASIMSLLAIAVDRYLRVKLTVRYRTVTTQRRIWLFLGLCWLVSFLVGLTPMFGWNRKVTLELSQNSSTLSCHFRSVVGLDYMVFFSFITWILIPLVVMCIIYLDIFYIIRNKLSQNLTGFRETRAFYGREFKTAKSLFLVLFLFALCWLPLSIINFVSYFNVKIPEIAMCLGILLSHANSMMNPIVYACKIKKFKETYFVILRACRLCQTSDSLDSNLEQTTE

Adenosine receptor A1 = molecular target: T6, Adenosine receptor A1 (Homo sapiens, UniProt P30542); assay: Displacement of [3H]DPCPX at human A1 receptor expressed in CHO cell membrane after 120 mins by scintillation counting method; type: cell membranes
T6 sequence (P30542 whole entry): T1 sequence (whole entry)

[7] = molecular target: T7, Adenosine receptor A3 (Homo sapiens) (UniProt P0DMS8); assay: Displacement of [125I]AB-MECA at human […] receptor expressed in CHO cell membrane at 1 uM after 60 mins by scintillation counting method; type: cell membranes
T7 sequence (whole entry): T3 sequence (P0DMS8 whole entry)

Adenosine receptor A2a [8] = molecular target: T2, Adenosine receptor A2a; assay: Displacement of [3H]ZM241385 at human A2A receptor expressed in CHO cell membrane after 60 mins by scintillation counting method; type: cell membranes

T2 sequence (P29274 whole entry): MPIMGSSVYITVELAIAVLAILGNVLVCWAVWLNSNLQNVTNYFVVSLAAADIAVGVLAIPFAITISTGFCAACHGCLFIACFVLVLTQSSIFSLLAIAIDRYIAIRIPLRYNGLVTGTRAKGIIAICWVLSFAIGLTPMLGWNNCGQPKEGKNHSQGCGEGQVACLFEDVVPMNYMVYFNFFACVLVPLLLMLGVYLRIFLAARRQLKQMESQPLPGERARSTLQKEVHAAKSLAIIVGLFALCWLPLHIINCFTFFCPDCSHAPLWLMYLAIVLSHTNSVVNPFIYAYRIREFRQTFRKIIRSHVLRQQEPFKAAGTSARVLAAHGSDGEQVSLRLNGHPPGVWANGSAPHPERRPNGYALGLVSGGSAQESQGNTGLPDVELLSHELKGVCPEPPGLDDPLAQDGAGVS

| inhibition [1] [%] | inhibition (Adenosine receptor A2a [2]) [%] | Ki (Adenosine receptor A3 [3]) [nM] | inhibition [4] [%] | IC50 (Adenosine receptor A3 [5]) [nM] | Ki (Adenosine receptor A3 [6]) [nM] | Ki (Adenosine receptor A1) [nM] | inhibition [7] [%] | Ki (Adenosine receptor A2a [8]) [nM] | Compound |
| --- | --- | --- | --- | --- | --- | --- | --- | --- | --- |
| 28 | 35 | 78 | 31 | – | – | – | – | – | COc1ccc(-n2cc3nc(-c4cccs4)nc(N)c3n2)cc1 |
| 3 | 1 | 9.83 | 1 | 39 | > 10000 | – | – | – | COc1ccc(-c2nc(NC(=O)c3ccncc3)c3nn(-c4ccccc4)cc3n2)cc1 |
| – | 21 | 2.34 | 1 | 5.47 | – | 552 | – | – | O=C(Nc1nc(-c2cccs2)nc2cn(-c3ccccc3)nc12)c1ccco1 |
| 1 | 12 | – | 1 | – | – | – | 30 | – | O=c1[nH]c(-c2ccco2)nc2cn(-c3ccccc3)nc12 |
| 13 | 1 | – | 3 | – | – | – | 4 | – | Nc1nc(-c2ccc(Cl)cc2)nc2cn(-c3ccccc3)nc12 |
| 2 | 1 | – | 1 | – | – | – | 1 | – | COc1ccc(-c2nc3cn(C)nc3c(=O)[nH]2)cc1 |
| – | 35 | 250 | 1 | – | – | 400 | – | – | Nc1nc(Cc2cccs2)nc2cn(-c3ccccc3)nc12 |
| 36 | 24 | 223 | 2 | – | – | – | – | – | O=C(Nc1nc(-c2ccccc2)nc2cn(Cc3ccccc3)nc12)c1ccccc1 |
| 20 | 1 | 9.54 | 1 | 37 | > 10000 | – | – | – | O=C(Nc1nc(-c2cccs2)nc2cn(-c3ccccc3)nc12)c1ccncc1 |
| 6 | 1 | 130 | 1 | – | – | – | – | – | O=c1[nH]c(-c2ccccc2)nc2cn(Cc3ccccc3)nc12 |
| 38 | 3 | – | 1 | – | – | – | 1 | – | Nc1nc(-c2ccccc2)nc2nn(-c3ccccc3)nc12 |
| 6 | 1 | 485 | 1 | – | – | – | – | – | Cc1nc2cn(Cc3ccccc3)nc2c(=O)[nH]1 |
| – | 2 | 1.82 | 1 | 4.37 | – | 687 | – | – | O=C(c1ccco1)N(C(=O)c1ccco1)c1nc(-c2cccs2)nc2cn(-c3ccccc3)nc12 |
| 31 | 1 | – | 1 | – | – | – | 1 | – | Cn1cc2nc(-c3ccccc3)nc(N)c2n1 |
| 1 | 3 | 17 | 1 | – | – | – | – | – | COc1ccc(-c2nc(N)c3nn(-c4ccc(OC)cc4)cc3n2)cc1 |
| 7 | 9 | 202 | 1 | – | – | – | – | – | O=C(Cc1ccccc1)Nc1nc(-c2ccccc2)nc2cn(Cc3ccccc3)nc12 |
| 18 | 1 | 5.87 | 1 | 13 | – | – | – | – | O=C(Nc1nc(-c2ccccc2)nc2cn(-c3ccccc3)nc12)c1cccs1 |
| – | 7 | 2.43 | 1 | 5.59 | – | 466 | – | – | O=C(Nc1nc(-c2cccs2)nc2cn(-c3ccccc3)nc12)c1cccs1 |
| 1 | 1 | 0.027 | 1 | 0.11 | > 10000 | – | – | – | COc1ccc(C(=O)Nc2nc(-c3cccs3)nc3cn(-c4ccccc4)nc23)cc1 |
| – | 6 | – | 1 | – | – | 213 | 1 | – | Cc1nc(N)c2nn(-c3ccccc3)nc2n1 |

| inhibition [1] [%] | inhibition (Adenosine receptor A2a [2]) [%] | Ki (Adenosine receptor A3 [3]) [nM] | inhibition [4] [%] | IC50 (Adenosine receptor A3 [5]) [nM] | Ki (Adenosine receptor A3 [6]) [nM] | Ki (Adenosine receptor A1) [nM] | inhibition [7] [%] | Ki (Adenosine receptor A2a [8]) [nM] | Compound |
| --- | --- | --- | --- | --- | --- | --- | --- | --- | --- |
| 1 | 1 | – | 1 | – | – | – | 1 | – | Cc1nc2cn(C)nc2c(=O)[nH]1 |
| – | – | 9.7 | 27 | – | – | 52 | – | 115 | Nc1nc(-c2cccs2)nc2cn(-c3ccccc3)nc12 |
| 1 | 15 | 868 | 1 | – | – | – | – | – | Cc1ccc(-c2nc3cn(-c4ccccc4)nc3c(=O)[nH]2)o1 |
| 32 | 14 | 321 | 1 | – | – | – | – | – | Cc1nc2nn(-c3ccccc3)nc2c(=O)[nH]1 |
| – | – | – | 5 | – | – | – | – | – | O=c1[nH]c(-c2ccccc2)nc2cn(-c3ccccc3)nc12 |
| 2 | 1 | 6.42 | 1 | 26 | > 10000 | – | – | – | COc1ccc(-c2nc(NC(=O)c3ccccc3)c3nn(-c4ccccc4)cc3n2)cc1 |
| 33 | 1 | 33 | 2 | – | – | – | – | – | COc1ccc(-c2nc(N)c3nn(-c4ccccc4)cc3n2)cc1 |
| 1 | 1 | 225 | 1 | – | – | – | – | – | Cc1nc2cn(-c3ccccc3F)nc2c(=O)[nH]1 |
| 3 | 1 | 1.31 | 1 | 4.27 | > 10000 | – | – | – | COc1ccc(C(=O)Nc2nc(-c3ccc(OC)cc3)nc3cn(-c4ccccc4)nc23)cc1 |
| 1 | 1 | 2.12 | 1 | 5.32 | > 10000 | – | – | – | O=C(Nc1nc(-c2cccs2)nc2cn(-c3ccccc3)nc12)c1ccccc1 |
| 31 | 33 | 432 | 7 | – | – | – | – | – | Nc1nc(-c2ccc(O)cc2)nc2cn(-c3ccccc3)nc12 |
| 5 | 1 | 247 | 1 | – | – | – | – | – | COc1ccc(-n2cc3nc(-c4cccs4)[nH]c(=O)c3n2)cc1 |
| 1 | 1 | – | 1 | – | – | – | 20 | – | Cn1cc2nc(-c3ccccc3)[nH]c(=O)c2n1 |
| 8 | 11 | – | 1 | – | – | – | 23 | – | O=c1[nH]c(-c2ccccc2)nc2nn(-c3ccccc3)nc12 |
| – | – | – | 3 | – | – | – | – | – | Cc1nc2cn(-c3ccccc3)nc2c(=O)[nH]1 |
| 6 | 14 | 413 | 1 | – | – | – | – | – | O=c1[nH]c(-c2cccs2)nc2cn(-c3ccccc3)nc12 |
| – | 3 | 0.41 | 1 | 1.01 | – | 764 | – | – | O=C(Nc1nc(-c2cccs2)nc2cn(-c3ccccc3)nc12)c1cccnc1 |
| 32 | 1 | 3.53 | 1 | 8.45 | – | – | – | – | O=C(Cc1ccccc1)Nc1nc(-c2cccs2)nc2cn(-c3ccccc3)nc12 |
| – | – | 54 | 1 | – | – | 250 | – | 300 | Nc1nc(-c2ccccc2)nc2cn(Cc3ccccc3)nc12 |
